Measured values as given in PMC4710608 (Environmental Health Perspectives, 2015).

Columns and labels:
PPARγ [1] = target: T1, PPARγ (Mus musculus, UniProt P37238); assay: GAL4-UAS luciferase transactivation assay in HEK293T/[…] cells; type: cell-based
T1 construct: gene Pparg
T1 sequence (P37238 193-505): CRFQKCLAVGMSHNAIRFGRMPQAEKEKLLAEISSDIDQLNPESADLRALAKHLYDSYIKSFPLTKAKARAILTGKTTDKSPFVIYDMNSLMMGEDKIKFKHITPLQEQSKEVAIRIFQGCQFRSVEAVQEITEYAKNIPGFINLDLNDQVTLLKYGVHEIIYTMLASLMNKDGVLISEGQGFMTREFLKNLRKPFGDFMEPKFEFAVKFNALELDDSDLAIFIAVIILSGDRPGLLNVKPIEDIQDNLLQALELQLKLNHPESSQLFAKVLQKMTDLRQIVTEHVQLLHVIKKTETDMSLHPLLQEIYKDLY

PPARγ [2] = target: T2, PPARγ (Homo sapiens, UniProt P37231); assay: competitive TR-FRET binding assay (terbium donor, Fluormone Green tracer displacement)
T2 construct: gene PPARG
T2 sequence (P37231 231-505 limits assumed): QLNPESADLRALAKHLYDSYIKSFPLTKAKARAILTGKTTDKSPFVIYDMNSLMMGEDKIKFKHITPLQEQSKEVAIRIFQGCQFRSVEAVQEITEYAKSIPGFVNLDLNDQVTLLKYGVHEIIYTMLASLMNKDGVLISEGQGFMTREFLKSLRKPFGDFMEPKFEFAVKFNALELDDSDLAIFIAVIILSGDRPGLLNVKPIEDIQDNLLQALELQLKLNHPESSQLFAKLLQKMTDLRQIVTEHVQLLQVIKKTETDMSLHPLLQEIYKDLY

Kd (PPARγ [2]): 1380 nM
Compound: CCCCC(CC)COC(=O)CC(C(=O)OCC(CC)CCCC)S(=O)(=O)O (centres unmarked) [DOSS]
GAL4-UAS luciferase transactivation assay in HEK293T/17 cells (PPARγ [1]): DOSS alone elicited dose-dependent increases in PPARγ-driven luciferase expression in the low ppm range
